Results reported in ChEMBL document CHEMBL3046534, “QSAR modeling of the inhibition of reverse transcriptase enzyme with benzimidazolone analogs” (Med Chem Res, 2011).

system: Human immunodeficiency virus 1; test: Antiviral activity against Human immunodeficiency virus 1 infected human MT4 cells assessed as protection against virus-induced cytopathic effect; assay type: functional, organism-based; conditions: Human immunodeficiency virus 1, MT4; read-out: EC50

First: O=c1oc2ccc(Cl)cc2n1Cc1c(F)cccc1F
Second: Oc1nc2cc(Cl)ccc2n1Cc1c(F)cccc1F
The EC50 of the first is 8-fold lower: 3720 nM for the first, 29600 nM for the second.

Going from `Oc1nc2ccc(Cl)cc2n1Cc1cccc2ccccc12` to `CC(C)c1ccc(Cn2c(O)nc3ccc(Cl)cc32)cc1`, the EC50 rises from 870 nM to 2830 nM (3.3-fold).

same assay, conditions: Human immunodeficiency virus 1, MT4; read-out: pEC50 (converted)

First: O=c1oc2ccc(Cl)cc2n1Cc1c(F)cccc1F
Second: O=c1[nH]c2ccc(Cl)cc2n1Cc1c(F)cccc1F
The EC50 of the first is 7-fold higher: 3720 nM for the first, 534 nM for the second.

Going from `Oc1nc2ccc(Cl)cc2n1Cc1cccc2ccccc12` to `CC(C)c1ccc(Cn2c(O)nc3ccc(Cl)cc32)cc1`, the EC50 rises from 870 nM to 2830 nM (3.3-fold).

`Oc1nc2cc(Cl)ccc2n1Cc1c(F)cccc1F` gave an EC50 of 29600 nM.
